ChEMBL document CHEMBL1201862, “PubChem BioAssay data set” (2004)
Active and inactive are the calls of the source.

Experiments:
[1] = biological target: T1, Corticotropin-releasing factor receptor 2/Corticotropin-releasing factor-binding protein (Homo sapiens, UniProt P24387+Q13324); test: Dose Response confirmation of uHTS hits for small molecule antagonists of the CRF-binding protein and CRF-R2 receptor complex.; format: functional; conditions: read-out: IC50_Mean
T1 sequence (Q13324 whole entry): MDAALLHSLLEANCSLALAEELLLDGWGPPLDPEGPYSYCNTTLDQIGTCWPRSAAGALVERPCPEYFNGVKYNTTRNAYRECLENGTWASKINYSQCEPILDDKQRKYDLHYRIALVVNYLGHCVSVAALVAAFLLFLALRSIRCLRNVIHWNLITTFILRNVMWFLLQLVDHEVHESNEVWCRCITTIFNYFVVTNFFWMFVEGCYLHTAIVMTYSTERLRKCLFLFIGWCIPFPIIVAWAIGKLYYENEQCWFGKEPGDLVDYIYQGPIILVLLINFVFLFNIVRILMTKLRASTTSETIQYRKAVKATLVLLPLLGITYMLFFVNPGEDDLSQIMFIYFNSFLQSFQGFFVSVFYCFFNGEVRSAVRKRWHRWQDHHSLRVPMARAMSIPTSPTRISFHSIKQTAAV
T1 sequence (P24387 whole entry): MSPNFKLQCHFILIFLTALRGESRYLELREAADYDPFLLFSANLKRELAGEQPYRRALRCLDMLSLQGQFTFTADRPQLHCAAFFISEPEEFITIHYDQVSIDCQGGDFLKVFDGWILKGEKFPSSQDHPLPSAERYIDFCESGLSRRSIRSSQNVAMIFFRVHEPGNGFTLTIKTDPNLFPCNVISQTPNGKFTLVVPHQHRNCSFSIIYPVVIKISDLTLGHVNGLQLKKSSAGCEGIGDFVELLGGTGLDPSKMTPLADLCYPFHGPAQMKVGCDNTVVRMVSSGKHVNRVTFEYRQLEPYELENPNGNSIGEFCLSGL

[2] = biological target: T1, Corticotropin-releasing factor receptor 2/Corticotropin-releasing factor-binding protein; test: activators of CRF receptor 2 with binding protein – uHTS hits, confirmation (AID 602473); format: functional; conditions: read-out: EC50_Mean
[3] = biological target: T2, Low molecular weight phosphotyrosine protein phosphatase (Homo sapiens, UniProt P24666); format: functional; conditions: read-out: IC50_Mean;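 further: Dose-response confirmation assay measuring inhibition of LMPTP enzyme activity by fluorescence intensity read-out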
T2 sequence (P24666 whole entry): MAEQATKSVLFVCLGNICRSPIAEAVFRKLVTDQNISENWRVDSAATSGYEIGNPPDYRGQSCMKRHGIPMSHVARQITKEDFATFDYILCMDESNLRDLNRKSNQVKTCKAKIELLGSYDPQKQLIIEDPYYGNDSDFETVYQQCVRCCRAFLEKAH

BJ [4] = test: BJ-TERT fibroblast viability loss – cell-based, RAS-independent, luminescence, dose response (AID 1933); format: functional; conditions: Homo sapiens
Protein RecA = biological target: T3, Protein RecA (Mycobacterium tuberculosis, UniProt P9WHJ3); test: Fluorescence Cell-Free Homogeneous Dose Retest to Identify Inhibitors of RecA-Intein Splicing Activity. [Related pubchem assays (depositor defined):AID2097, AID2223, AID489010, AID492950]; format: functional
T3 sequence (P9WHJ3 whole entry): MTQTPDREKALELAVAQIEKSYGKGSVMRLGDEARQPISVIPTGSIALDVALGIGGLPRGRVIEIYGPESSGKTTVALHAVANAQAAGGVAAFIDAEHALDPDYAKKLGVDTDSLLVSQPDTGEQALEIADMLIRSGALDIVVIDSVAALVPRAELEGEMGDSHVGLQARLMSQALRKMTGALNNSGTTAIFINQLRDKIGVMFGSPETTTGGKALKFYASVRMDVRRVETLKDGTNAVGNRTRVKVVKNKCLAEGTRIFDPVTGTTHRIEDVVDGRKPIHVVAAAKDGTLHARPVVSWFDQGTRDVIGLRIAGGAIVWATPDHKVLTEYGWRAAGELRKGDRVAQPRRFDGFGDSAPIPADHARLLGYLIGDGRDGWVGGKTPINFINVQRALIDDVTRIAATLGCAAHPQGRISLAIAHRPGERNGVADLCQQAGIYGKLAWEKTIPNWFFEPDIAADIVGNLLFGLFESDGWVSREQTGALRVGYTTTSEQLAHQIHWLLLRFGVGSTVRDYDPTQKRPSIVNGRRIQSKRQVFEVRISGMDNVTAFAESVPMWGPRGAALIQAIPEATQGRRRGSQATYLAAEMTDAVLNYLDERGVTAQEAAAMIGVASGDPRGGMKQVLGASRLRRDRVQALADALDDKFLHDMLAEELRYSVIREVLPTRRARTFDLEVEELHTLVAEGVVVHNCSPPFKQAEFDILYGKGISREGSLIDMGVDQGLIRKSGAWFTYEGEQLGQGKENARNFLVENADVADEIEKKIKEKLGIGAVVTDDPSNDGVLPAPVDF

[5] = biological target: Peroxisome proliferator-activated receptor gamma/Nuclear receptor coactivator 3 (Homo sapiens, UniProt P37231); format: functional;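 further: agonist potency for raising coactivator recruitment to the receptor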
BJ [6] = test: growth inhibition of engineered Ras-driven BJ cells – cell-based, alamar blue fluorescence, cherrypicked samples, dose response (AID 2631); format: functional; conditions: Homo sapiens;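 further: confirmatory dose-response assay in RAS-dependent BJ fibroblasts engineered with TERT, LT and ST, with cytotoxicity read by fluorescence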
[7] = viability of PTEN-deleted HCT116 cells – cell-based, HCT116 PTEN knockout, dose response (AID 1047); format: functional;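 further: HCT116 colon tumor cells with PTEN knocked out; cells exposed to compound for 60 hours before readout; potency for loss of cell viability measured by luminescence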
BJ [8] = test: cells; format: functional, cell-based; conditions: Homo sapiens
[9] = biological target: T4, Replicative DNA helicase DnaB (Mycobacterium tuberculosis, UniProt P9WMR3); test: DnaB intein splicing inhibitors, dose response, biochemical, cell-free fluorescence (AID 449749); format: functional
T4 sequence (P9WMR3 whole entry): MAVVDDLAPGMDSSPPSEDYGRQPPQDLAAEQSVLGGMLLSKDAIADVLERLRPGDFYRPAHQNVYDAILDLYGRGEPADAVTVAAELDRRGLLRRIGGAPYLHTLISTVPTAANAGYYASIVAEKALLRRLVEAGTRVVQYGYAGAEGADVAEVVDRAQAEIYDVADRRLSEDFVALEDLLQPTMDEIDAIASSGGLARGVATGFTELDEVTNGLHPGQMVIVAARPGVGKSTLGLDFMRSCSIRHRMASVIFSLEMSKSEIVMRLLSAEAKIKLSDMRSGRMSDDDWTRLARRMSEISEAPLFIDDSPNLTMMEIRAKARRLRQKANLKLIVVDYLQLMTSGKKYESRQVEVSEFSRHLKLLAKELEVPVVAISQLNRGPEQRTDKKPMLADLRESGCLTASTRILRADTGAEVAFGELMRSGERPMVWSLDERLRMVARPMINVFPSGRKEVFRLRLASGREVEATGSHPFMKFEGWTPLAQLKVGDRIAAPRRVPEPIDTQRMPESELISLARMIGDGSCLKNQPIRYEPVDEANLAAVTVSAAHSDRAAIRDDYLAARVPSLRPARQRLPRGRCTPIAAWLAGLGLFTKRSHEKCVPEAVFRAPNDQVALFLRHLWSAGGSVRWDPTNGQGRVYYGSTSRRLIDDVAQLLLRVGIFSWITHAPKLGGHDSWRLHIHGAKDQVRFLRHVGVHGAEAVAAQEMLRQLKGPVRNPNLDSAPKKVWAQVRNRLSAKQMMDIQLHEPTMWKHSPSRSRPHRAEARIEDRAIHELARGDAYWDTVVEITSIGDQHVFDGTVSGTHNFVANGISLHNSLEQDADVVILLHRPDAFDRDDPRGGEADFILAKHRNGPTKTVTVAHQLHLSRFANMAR

[10] = microbe, parasite or virus in culture; format: functional; conditions: Mycobacterium tuberculosis
[11] = viability of HCT116 lacking mutant beta-catenin – cell-based, human colon tumor, dose response (AID 1045); format: functional;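 further: HCT116 colon tumor cells with beta catenin knocked out; cells exposed to compound for 60 hours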
[12] = DRD fibroblast viability loss – cell-based, non-viral oncogenic, luminescence, dose response (AID 1934); format: functional; conditions: Homo sapiens
BJ [13] = test: BJ-TERT-LT-ST fibroblast viability loss – cell-based, RAS-independent, luminescence, dose response (AID 1935); format: functional; conditions: Homo sapiens;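 further: BJ fibroblasts immortalized with TERT plus LT and ST oncogenes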
[14] = biological target: Peroxisome proliferator-activated receptor gamma/Nuclear receptor coactivator 1 (Homo sapiens, UniProt P37231); format: functional;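 further: agonist potency as compounds enhance coactivator SRC-1 recruitment to PPARgamma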
[15] = biological target: Peroxisome proliferator-activated receptor gamma/Nuclear receptor coactivator 2 (Homo sapiens, UniProt P37231); format: functional;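 further: agonist potency for raising coactivator recruitment to the receptor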
[16] = biological target: Hepatocyte nuclear factor 4-alpha (Homo sapiens, UniProt P41235); format: functional, cell-based;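 further: biochemical luminescence-based dose-response counterscreen measuring inhibition of HNF4 dimerization, run alongside a screen for blockers of ABHD5–perilipin-5 interaction; split luciferase complementation of HNF4 fusion proteins in cell lysate measuring dimerization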
[17] = biological target: Tyrosine-protein phosphatase non-receptor type 5 (Homo sapiens, UniProt P54829); test: PTPN5 enzyme inhibition – biochemical, fluorescence intensity, uHTS hits, confirmation (AID 602372); format: functional; conditions: read-out: IC50_Mean
[18] = biological target: Tyrosine-protein phosphatase non-receptor type 11 (Homo sapiens, UniProt Q06124); test: PTPN11 enzyme inhibitors – biochemical, selectivity assay for STEP inhibitor project, dose response (AID 602367); format: functional; conditions: read-out: IC50_Mean
[19] = biological target: Dual specificity protein phosphatase 3 (Homo sapiens, UniProt P51452); test: VHR phosphatase inhibition, dose response, selectivity assay for STEP inhibitor project, biochemical (AID 602374); format: functional; conditions: read-out: IC50_Mean
Dual specificity protein phosphatase 3, sequence (P51452 whole entry): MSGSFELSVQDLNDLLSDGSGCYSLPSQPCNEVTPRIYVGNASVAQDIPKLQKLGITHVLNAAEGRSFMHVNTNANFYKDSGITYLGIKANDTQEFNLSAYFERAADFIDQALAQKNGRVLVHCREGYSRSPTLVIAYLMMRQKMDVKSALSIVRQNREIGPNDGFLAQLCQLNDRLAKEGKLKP

Hepatocyte nuclear factor 4-alpha, sequence (P41235 whole entry, the tested form may be a part): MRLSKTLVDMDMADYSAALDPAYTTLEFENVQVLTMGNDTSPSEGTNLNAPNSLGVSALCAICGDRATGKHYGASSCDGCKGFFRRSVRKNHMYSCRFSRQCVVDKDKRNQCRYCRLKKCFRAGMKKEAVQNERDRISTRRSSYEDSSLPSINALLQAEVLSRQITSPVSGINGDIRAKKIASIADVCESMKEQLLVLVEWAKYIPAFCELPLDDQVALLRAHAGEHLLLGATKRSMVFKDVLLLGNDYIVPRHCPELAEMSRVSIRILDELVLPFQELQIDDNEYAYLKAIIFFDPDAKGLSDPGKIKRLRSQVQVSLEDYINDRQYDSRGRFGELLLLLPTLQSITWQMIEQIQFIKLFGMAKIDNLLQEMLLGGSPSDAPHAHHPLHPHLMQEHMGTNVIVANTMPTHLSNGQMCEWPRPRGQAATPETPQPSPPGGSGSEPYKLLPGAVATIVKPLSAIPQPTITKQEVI
Tyrosine-protein phosphatase non-receptor type 5, sequence (P54829 whole entry): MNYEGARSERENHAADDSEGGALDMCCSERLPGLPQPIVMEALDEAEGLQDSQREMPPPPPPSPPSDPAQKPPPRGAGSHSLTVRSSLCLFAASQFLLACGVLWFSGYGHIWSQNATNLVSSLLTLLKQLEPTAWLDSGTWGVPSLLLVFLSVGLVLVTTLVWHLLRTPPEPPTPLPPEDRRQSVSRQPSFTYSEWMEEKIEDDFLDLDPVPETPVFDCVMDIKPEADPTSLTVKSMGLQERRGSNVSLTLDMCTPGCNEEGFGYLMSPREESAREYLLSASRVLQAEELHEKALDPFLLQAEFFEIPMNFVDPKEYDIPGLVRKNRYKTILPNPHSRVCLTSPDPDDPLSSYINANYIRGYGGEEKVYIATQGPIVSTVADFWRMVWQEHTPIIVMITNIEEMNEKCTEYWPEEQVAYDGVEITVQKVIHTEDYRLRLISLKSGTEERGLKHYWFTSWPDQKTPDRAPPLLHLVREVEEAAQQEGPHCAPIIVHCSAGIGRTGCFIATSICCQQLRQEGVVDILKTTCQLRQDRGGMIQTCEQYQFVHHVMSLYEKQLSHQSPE
Tyrosine-protein phosphatase non-receptor type 11, sequence (Q06124 whole entry): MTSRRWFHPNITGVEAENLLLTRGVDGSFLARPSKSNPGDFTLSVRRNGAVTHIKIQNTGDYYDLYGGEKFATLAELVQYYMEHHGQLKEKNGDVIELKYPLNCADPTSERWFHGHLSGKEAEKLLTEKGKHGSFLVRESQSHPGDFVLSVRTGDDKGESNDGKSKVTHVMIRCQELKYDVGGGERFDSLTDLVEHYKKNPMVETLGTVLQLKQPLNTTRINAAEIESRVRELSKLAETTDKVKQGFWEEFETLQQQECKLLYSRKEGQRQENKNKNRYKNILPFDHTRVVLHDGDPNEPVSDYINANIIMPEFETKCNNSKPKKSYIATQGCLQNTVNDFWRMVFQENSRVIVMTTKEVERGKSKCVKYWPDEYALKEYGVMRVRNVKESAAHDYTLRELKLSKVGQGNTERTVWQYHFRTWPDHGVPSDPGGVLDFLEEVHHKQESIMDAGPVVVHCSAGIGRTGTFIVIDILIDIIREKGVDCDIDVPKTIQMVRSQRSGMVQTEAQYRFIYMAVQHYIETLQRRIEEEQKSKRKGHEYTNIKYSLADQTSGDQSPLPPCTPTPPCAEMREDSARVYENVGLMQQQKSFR
Peroxisome proliferator-activated receptor gamma/Nuclear receptor coactivator 3, sequence (P37231 whole entry): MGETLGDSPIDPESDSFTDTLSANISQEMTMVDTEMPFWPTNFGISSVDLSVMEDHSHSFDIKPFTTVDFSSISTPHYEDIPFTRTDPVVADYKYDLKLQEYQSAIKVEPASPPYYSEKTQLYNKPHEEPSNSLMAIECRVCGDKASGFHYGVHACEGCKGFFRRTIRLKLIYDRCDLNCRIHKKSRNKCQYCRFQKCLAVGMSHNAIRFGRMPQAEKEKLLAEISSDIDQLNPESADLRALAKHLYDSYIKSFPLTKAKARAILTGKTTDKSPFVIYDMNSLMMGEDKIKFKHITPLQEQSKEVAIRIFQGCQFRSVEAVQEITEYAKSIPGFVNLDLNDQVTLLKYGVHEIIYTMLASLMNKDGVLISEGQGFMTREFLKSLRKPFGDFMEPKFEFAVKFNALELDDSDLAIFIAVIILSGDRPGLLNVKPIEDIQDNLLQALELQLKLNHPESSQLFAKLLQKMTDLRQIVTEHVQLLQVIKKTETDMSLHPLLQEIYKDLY
Peroxisome proliferator-activated receptor gamma/Nuclear receptor coactivator 3, sequence (Q9Y6Q9 whole entry, further chain): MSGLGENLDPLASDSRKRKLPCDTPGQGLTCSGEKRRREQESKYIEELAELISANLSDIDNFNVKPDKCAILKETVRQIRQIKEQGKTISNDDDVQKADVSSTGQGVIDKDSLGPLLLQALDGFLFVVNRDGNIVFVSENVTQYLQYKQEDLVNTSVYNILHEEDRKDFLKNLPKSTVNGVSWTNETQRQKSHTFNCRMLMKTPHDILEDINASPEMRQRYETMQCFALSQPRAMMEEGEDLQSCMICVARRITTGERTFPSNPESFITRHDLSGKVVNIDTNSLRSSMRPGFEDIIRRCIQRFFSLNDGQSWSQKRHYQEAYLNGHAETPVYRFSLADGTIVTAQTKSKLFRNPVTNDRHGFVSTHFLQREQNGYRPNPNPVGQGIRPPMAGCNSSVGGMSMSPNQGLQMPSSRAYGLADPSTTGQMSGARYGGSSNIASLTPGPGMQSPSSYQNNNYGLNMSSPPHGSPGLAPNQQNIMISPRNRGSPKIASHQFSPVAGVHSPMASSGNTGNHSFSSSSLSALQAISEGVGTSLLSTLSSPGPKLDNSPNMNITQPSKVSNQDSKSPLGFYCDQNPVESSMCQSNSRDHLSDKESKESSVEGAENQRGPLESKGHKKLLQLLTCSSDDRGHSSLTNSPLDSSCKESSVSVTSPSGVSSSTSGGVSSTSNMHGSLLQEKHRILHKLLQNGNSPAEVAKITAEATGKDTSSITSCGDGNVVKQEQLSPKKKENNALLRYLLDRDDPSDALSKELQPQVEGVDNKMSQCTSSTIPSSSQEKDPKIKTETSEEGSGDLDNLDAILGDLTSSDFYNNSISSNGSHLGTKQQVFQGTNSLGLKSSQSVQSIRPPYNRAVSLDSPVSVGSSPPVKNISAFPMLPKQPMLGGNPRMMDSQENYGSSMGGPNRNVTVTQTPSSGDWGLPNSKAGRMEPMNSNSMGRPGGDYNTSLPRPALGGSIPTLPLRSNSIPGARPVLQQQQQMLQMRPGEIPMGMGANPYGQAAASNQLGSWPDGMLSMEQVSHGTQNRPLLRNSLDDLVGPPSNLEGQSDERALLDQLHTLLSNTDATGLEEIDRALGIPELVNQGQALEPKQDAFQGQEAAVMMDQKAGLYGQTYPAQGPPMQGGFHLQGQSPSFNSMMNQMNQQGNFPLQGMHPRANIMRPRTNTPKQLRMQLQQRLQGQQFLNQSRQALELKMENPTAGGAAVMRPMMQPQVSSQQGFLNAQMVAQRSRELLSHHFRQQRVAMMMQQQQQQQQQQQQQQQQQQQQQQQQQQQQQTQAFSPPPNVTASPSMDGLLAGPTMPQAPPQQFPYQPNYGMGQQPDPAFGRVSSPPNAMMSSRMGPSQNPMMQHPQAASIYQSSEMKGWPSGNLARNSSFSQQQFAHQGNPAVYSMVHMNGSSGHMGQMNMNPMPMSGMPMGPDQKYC

Compound: COc1ccc(Cn2c(-c3ccco3)nc3c(c(=O)c4ccccc4n3C)c2=O)cc1
- IC50 [1]: > 47.1 µM (inactive)
- EC50 [2]: > 53 µM (inactive)
- IC50 [3]: 39 µM (inactive)

Compound: O=c1c(Cl)nc2cc(Cl)ccc2n1CCNc1ncc(C(F)(F)F)cc1Cl
- EC50 (BJ [4]): 2.67 µM (inconclusive)
- EC50 (Protein RecA): 951 nM (active)
- EC50 [5]: 36.3 µM (not active)
- EC50 (BJ [6]): 574 nM (inconclusive)
- EC50 [7]: 4.75 µM (active)
- EC50 (BJ [8]): 6.1 µM (inconclusive)
- AC50 [9]: > 120 µM (inactive)
- CC50 [10]: 11.5 µM (active)
- EC50 [11]: 4.66 µM (active)
- EC50 [12]: 2.81 µM (inconclusive)
- EC50 (BJ [13]): 1.98 µM (active)
- EC50 [14]: 19.8 µM (not active)
- EC50 [15]: 20.1 µM (not active)

Compound: O=C(NCc1ccccc1)C(c1cc2ccccc2o1)n1c(=O)c(-c2ccco2)nc2ccccc21 (stereo not given)
- IC50 [16]: 3.07 µM (active)

Compound: O=C(N/N=C/c1coc2ccccc2c1=O)c1cc2ccccc2o1
- IC50 [17]: 35.8 µM (inactive)
- IC50 [18]: 33.4 µM (inactive)
- IC50 [19]: 14.1 µM (active)
